Measurements from the NIST ThermoML archive (doi:10.1021/je7003758).

Test: xn = mol fraction of the nth substance listed
Conditions: 298.15 K, Liquid

CCCCCl [1-chlorobutane] + CN1CCCC1=O
mass density [kg/m3]
Conditions	x2 = 0.1004	x2 = 0.2002	x2 = 0.2974	x2 = 0.4	x2 = 0.5052	x2 = 0.6019	x2 = 0.7039	x2 = 0.8011	x2 = 0.9002
100 kPa	896.6	912	926.8	942.2	957.5	971.7	986.2	1000.1	1014.3
500 kPa	896.9	–	927.1	942.5	957.8	972	986.5	1000.4	1014.5
600 kPa	–	912.3	–	–	–	–	–	–	–
1000 kPa	897.4	912.7	927.5	942.8	958.2	972.2	986.8	1000.6	1014.8
1500 kPa	897.9	913.2	927.9	943.2	958.6	972.6	987.1	1000.9	1015.1
2000 kPa	898.4	913.6	928.4	943.6	958.9	973	987.4	1001.2	1015.3
2400 kPa	–	–	928.7	–	–	973.3	–	–	–
2500 kPa	898.9	914.1	–	944	959.3	–	987.7	1001.6	1015.6
3000 kPa	899.3	914.6	929.2	944.4	959.6	973.6	988	1001.8	1015.9
3500 kPa	899.8	915	929.6	944.8	960	973.9	988.4	1002.2	1016.2
3900 kPa	–	–	–	–	–	974.2	–	–	–
4000 kPa	900.3	915.4	930	945.1	960.3	–	988.7	1002.4	1016.5
4400 kPa	900.7	–	–	–	–	–	–	–	1016.7
4500 kPa	–	915.9	930.4	945.6	960.7	974.6	989	1002.7	–
4900 kPa	901.2	–	–	–	–	–	–	–	–
5000 kPa	–	916.3	930.8	945.9	961.1	–	989.3	1003	1017
5100 kPa	–	–	–	–	–	975	–	–	–
5400 kPa	901.7	–	–	–	–	975.2	–	–	–
5500 kPa	–	916.8	931.2	946.3	961.4	–	989.6	1003.3	1017.3
5900 kPa	–	917.1	–	–	–	–	–	–	–
6000 kPa	902.1	–	931.7	946.7	961.8	975.6	990	1003.6	1017.6
6500 kPa	902.6	917.6	932.1	947.1	962.2	976	990.2	1003.9	1017.8
6900 kPa	903	–	932.5	–	–	–	–	–	–
7000 kPa	–	918.1	–	947.5	962.5	976.3	990.6	1004.2	1018.2
7500 kPa	903.5	918.5	932.8	–	962.9	976.6	990.9	1004.5	1018.4
7600 kPa	–	–	–	948	–	–	–	–	–
7900 kPa	903.9	–	–	–	–	–	991.1	–	–
8000 kPa	–	918.9	933.3	948.3	963.2	976.9	–	1004.8	1018.7
8400 kPa	–	919.3	–	–	–	–	–	–	–
8500 kPa	904.4	–	933.6	948.6	963.6	977.2	991.5	1005.1	1019
8900 kPa	–	919.7	–	–	–	977.5	991.7	–	–
9000 kPa	904.9	–	933.9	949	963.9	–	–	1005.4	1019.2
9400 kPa	–	–	934.3	–	–	–	992	–	–
9500 kPa	905.3	920.2	–	949.3	964.2	977.9	–	1005.6	1019.5
9900 kPa	–	–	934.8	–	–	–	–	–	–
10000 kPa	905.8	920.7	–	949.8	964.7	978.3	992.4	–	1019.8
10100 kPa	–	–	–	–	–	–	–	1006.1	–
10400 kPa	–	–	–	950.1	–	–	–	–	–
10500 kPa	–	921.1	935.3	–	965	978.6	992.7	1006.3	1020.1
10600 kPa	906.4	–	–	–	–	–	–	–	–
10900 kPa	906.7	–	–	950.4	–	–	–	–	–
11000 kPa	–	921.5	935.6	–	965.4	978.9	993	1006.6	1020.4
11400 kPa	–	921.9	–	–	–	–	993.3	–	–
11500 kPa	907.2	–	936	950.8	965.7	979.3	–	1006.8	1020.6
11900 kPa	–	–	936.3	–	–	–	–	–	–
12000 kPa	907.6	922.4	–	951.2	966	979.6	993.6	1007.1	1020.9
12400 kPa	–	–	–	951.6	–	979.8	993.9	–	–
12500 kPa	908.1	922.8	936.8	–	966.4	–	–	1007.4	1021.1
12900 kPa	–	–	–	–	–	–	–	1007.6	–
13000 kPa	908.5	923.2	937.1	951.9	966.7	980.2	994.2	–	1021.4
13400 kPa	–	–	–	–	–	–	994.5	–	–
13500 kPa	908.9	923.6	937.6	952.3	967	–	–	1008	1021.7
13600 kPa	–	–	–	–	–	980.6	–	–	–
13900 kPa	–	–	–	952.7	–	–	–	–	–
14000 kPa	–	–	937.8	–	967.4	–	994.8	1008.2	1022
14100 kPa	909.5	924.1	–	–	–	981	–	–	–
14400 kPa	–	–	–	953	967.7	–	–	–	1022.2
14500 kPa	909.8	924.4	938.2	–	–	981.1	995.1	1008.5	–
15000 kPa	910.2	924.7	938.6	953.4	968	981.5	–	1008.8	1022.5
15100 kPa	–	–	–	–	–	–	995.6	–	–
15500 kPa	910.7	925.2	939	953.8	–	981.8	995.7	1009.1	–
15600 kPa	–	–	–	–	968.5	–	–	–	1022.8
16000 kPa	911.1	925.6	939.4	954.1	968.7	982.1	996	1009.3	1023
16400 kPa	–	926	939.7	–	–	982.4	–	–	–
16500 kPa	911.5	–	–	954.4	969.1	–	996.3	1009.6	1023.2
16900 kPa	–	–	940.1	–	–	–	–	–	–
17000 kPa	911.9	926.3	–	954.8	969.4	982.8	996.6	1009.9	1023.4
17400 kPa	–	–	940.5	–	–	–	–	1010.2	–
17500 kPa	912.3	926.7	–	955.2	969.7	983	996.8	–	1023.8
18000 kPa	912.7	927.1	940.8	–	970.1	–	997.2	1010.5	1024
18100 kPa	–	–	–	955.6	–	983.4	–	–	–
18500 kPa	913.1	927.6	–	955.8	970.3	983.6	997.5	–	1024.2
18600 kPa	–	–	941.4	–	–	–	–	1010.8	–
19000 kPa	913.6	928	941.7	956.2	970.8	984	–	1011	1024.5
19100 kPa	–	–	–	–	–	–	997.9	–	–
19400 kPa	913.9	–	–	–	–	–	–	–	–
19500 kPa	–	928.3	942.1	956.6	971	984.3	998	1011.3	1024.8
20000 kPa	914.5	928.7	942.6	957	971.4	984.6	998.4	1011.6	1025.1
